Measured values taken from US8697730B2, “5-lipoxygenase activating protein (FLAP) inhibitor” (Panmira Pharmaceuticals, LLC, priority 2007, dated 2014).
Read-outs that look alike come from different tables or passages of the source.

Legend:
[1] = Solubility in organic solvents; assay type: physicochemical; settings: for solubility: 25 °C, Form C, read-out: Solubility, mg/mL at 25° C.
CYP3A4 = CYP3A4 (Homo sapiens, UniProt P08684); assay: biochemical
[2] = Phase 1 study in healthy human volunteers, plasma pharmacokinetics; assay type: in vivo; settings: for AUC(0-t): read-out: AUC0-24 (hr * mM) AVE ± SD; for Tmax: read-out: Tmax (hr) AVE ± SD; for half-life: read-out: t1/2 (hr) AVE ± SD (converted)
Method: The study is divided into two phases (Single and Multiple Dose Phases).
One cohort in the Multiple Dose Phase receives twice daily dosing.
Placebo solution to match. The finished aqueous solution is prepared in the clinical study site pharmacy within 24 hours of dosing. The study drug is stored at room temperature between 15-30° C. (59-86° F.) and protected from light.
Route of Administration: All doses are administered orally with approximately 100 mL of water rinse. Subjects are fasted for at least 8 hours prior to dosing and for 2 hours after dosing.
Obtain pre-dose fasting blood samples for hematology determinations. Obtain pre-dose fasting blood samples for serum chemistry determinations. Obtain pre-dose blood samples (5 mL EDTA and 4 mL heparinized) for baseline PK and LTB4. Collect ‘spot’ urine prior to study drug administration for baseline (pre-dose) LTE4. Administer study drug. […] Collect blood samples (2 mL heparinized) for LTB4 at 0.5, 1, 2, 3, 4, 6, 8, and 12 hours. Collect urine for LTE4 for the following separate intervals: 0-3, 3-6, 6-9, and 9-12 hours. For twice daily dosing group (if conducted): administer study drug 12 hours±30 minutes after prior dose, preceded by ≧2 hours fast. […]

in vivo = assay: in vivo; set-up: species or system female Beagle dogs; settings: dog
Method: For comparison, an IV formulation was also tested. Table 18 summarizes the results of the experiments of administration of the various oral formulations to female beagle dogs.

CYP2C9 = CYP2C9 (Homo sapiens, UniProt P11712); assay: biochemical
Chain of CYP2C9 (P11712 whole entry): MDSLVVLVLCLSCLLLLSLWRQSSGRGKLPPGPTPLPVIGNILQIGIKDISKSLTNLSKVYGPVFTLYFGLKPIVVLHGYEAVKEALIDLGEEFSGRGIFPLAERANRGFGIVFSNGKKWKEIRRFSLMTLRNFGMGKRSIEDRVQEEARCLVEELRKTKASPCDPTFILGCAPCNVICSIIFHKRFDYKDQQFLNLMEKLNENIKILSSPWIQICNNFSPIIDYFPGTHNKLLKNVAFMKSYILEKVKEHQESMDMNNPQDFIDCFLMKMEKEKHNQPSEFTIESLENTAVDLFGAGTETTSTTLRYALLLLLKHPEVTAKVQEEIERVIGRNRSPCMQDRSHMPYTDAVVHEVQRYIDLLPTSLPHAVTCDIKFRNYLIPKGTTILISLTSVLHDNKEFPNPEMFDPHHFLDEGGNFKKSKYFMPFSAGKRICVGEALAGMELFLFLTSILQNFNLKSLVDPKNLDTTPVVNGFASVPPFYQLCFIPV

CYP2D6 = CYP2D6 (Homo sapiens, UniProt P10635); assay: biochemical
Chain of CYP2D6 (P10635 whole entry): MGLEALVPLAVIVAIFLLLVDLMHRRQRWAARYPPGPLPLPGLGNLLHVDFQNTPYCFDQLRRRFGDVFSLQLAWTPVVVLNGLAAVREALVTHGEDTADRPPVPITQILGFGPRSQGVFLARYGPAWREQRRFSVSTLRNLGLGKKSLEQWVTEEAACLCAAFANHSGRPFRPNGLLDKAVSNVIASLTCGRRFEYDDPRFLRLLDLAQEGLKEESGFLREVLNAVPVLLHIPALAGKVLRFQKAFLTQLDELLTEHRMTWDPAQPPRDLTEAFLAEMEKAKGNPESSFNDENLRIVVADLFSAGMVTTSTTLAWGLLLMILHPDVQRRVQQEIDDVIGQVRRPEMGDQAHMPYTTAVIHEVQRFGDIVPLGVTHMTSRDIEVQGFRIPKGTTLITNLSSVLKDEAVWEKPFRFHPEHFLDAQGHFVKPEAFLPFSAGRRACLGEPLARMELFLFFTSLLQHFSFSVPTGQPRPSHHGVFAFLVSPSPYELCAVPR

CYP1A2 = target: T1, CYP1A2 (Homo sapiens, UniProt P05177); assay: biochemical
T1 sequence (P05177 1-516): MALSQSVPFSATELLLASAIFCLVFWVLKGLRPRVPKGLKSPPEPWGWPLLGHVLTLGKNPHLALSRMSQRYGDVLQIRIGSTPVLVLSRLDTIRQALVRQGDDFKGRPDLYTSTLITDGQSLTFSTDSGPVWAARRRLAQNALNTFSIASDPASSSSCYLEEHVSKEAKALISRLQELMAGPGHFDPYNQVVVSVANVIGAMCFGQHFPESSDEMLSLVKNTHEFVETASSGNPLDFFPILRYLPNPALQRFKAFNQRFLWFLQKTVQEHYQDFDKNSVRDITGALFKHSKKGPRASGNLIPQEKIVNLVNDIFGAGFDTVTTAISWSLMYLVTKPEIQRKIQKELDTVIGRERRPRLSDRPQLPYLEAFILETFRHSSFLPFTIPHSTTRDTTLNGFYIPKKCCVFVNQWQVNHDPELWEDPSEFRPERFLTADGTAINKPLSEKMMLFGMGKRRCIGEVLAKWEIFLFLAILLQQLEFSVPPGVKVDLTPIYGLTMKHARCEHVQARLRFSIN

[3] = both sexes, human, single dose 50 mg, oral solution, fasted healthy subjects
[4] = both sexes, human, single dose 150 mg, oral solution, fasted healthy subjects
[5] = both sexes, human, single dose 300 mg, oral solution, fasted healthy subjects
[6] = both sexes, human, single dose 600 mg, oral solution, fasted healthy subjects
[7] = both sexes, human, single dose 1000 mg, oral solution, fasted healthy subjects
[8] = male, human, multiple dose phase, Day 1, 150 mg, oral solution
[9] = male, human, multiple dose phase, Day 1, 450 mg, oral solution
[10] = male, human, multiple dose phase, Day 1, 1000 mg, oral solution

Chain of CYP3A4 (P08684 whole entry): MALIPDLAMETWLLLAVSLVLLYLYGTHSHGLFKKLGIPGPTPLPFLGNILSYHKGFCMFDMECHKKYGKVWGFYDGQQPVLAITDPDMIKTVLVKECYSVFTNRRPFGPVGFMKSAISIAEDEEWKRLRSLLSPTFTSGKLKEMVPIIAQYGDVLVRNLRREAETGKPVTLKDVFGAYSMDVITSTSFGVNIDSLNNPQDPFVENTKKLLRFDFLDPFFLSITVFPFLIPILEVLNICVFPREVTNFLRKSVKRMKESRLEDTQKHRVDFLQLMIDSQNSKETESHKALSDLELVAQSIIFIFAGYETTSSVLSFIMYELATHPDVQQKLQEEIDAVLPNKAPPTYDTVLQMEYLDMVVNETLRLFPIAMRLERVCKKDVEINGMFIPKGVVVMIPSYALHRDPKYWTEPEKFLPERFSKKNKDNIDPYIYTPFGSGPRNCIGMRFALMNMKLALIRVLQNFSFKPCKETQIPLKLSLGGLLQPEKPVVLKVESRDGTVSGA

COc1ccc(-c2ccc(Cn3c(CC(C)(C)C(=O)O)c(SC(C)(C)C)c4cc(OCc5ccccn5)ccc43)cc2)cn1 [sodium 3-[5-(pyridin-2-ylmethoxy)-3-(2-methyl-2-propylthio)-1-[4-(2-methoxypyridin-5-yl)benzyl]-indol-2-yl]-2,2-dimethyl-propionate]
solubility ([1]; aqueous with cosolvent or surfactant or cyclodextrin, 0.5% Methylcellulose/water): 9.3 mg/mL | solubility ([1]; organic solvent or mixture, Acetonitrile): 0.2 mg/mL | solubility ([1]; organic solvent or mixture, Ethanol): 17.1 mg/mL | solubility ([1]; organic solvent or mixture, Isopropanol): 1.1 mg/mL | solubility ([1]; organic solvent or mixture, Methanol): > 50 mg/mL | solubility ([1]; organic solvent or mixture, Propylene glycol): 13.4 mg/mL | solubility in words ([1]; acetonitrile): sparingly soluble | solubility in words ([1]; isopropanol): sparingly soluble | solubility in words ([1]; methanol): very soluble | IC50 (CYP3A4): > 50 µM | AUC(0-t) [2, 3]: 5.4 ± 2.5 µM·h | Cmax ([2]; both sexes, human, single dose 50 mg, oral solution, fasted healthy subjects, read-out: Cmax (mM) AVE ± SD): 0.00065 ± 0.00032 mM | Tmax [2, 3]: 3 ± 0.8 h | half-life [2, 3]: 7.7 ± 0.3 h | AUC(0-t) [2, 4]: 15.9 ± 8.7 µM·h | Cmax ([2]; both sexes, human, single dose 150 mg, oral solution, fasted healthy subjects, read-out: Cmax (mM) AVE ± SD): 0.0018 ± 0.0011 mM | Tmax [2, 4]: 2.5 ± 0.5 h | half-life [2, 4]: 10 ± 2 h | AUC(0-t) [2, 5]: 25.8 ± 7.4 µM·h | Cmax ([2]; both sexes, human, single dose 300 mg, oral solution, fasted healthy subjects, read-out: Cmax (mM) AVE ± SD): 0.0031 ± 0.0014 mM | Tmax [2, 5]: 3.2 ± 1 h | half-life [2, 5]: 12.3 ± 3.1 h | AUC(0-t) [2, 6]: 54 ± 35.3 µM·h | Cmax ([2]; both sexes, human, single dose 600 mg, oral solution, fasted healthy subjects, read-out: Cmax (mM) AVE ± SD): 0.0081 ± 0.0053 mM | Tmax [2, 6]: 2 ± 0.6 h | half-life [2, 6]: 8.8 ± 1.3 h | AUC(0-t) [2, 7]: 85 ± 44 µM·h | Cmax ([2]; both sexes, human, single dose 1000 mg, oral solution, fasted healthy subjects, read-out: Cmax (mM) AVE ± SD): 0.013 ± 0.005 mM | Tmax [2, 7]: 3 ± 0.8 h | half-life [2, 7]: 7.6 ± 4.6 h | Cmax ([2]; both sexes, oral, profile that may be obtained from a single dose administration to a human, dose not stated, read-out: Cmax): ≤ 0.005 mM | AUC(0-t) [2, 8]: 11.3 ± 5 µM·h | Cmax ([2]; male, human, multiple dose phase, Day 1, 150 mg, oral solution, read-out: Cmax (mM) AVE ± SD): 0.0019 ± 0.0011 mM | Tmax [2, 8]: 2.5 ± 0.5 h | half-life [2, 8]: 9.2 ± 2 h | AUC(0-t) [2, 9]: 34.2 ± 7.9 µM·h | Cmax ([2]; male, human, multiple dose phase, Day 1, 450 mg, oral solution, read-out: Cmax (mM) AVE ± SD): 0.0047 ± 0.0022 mM | Tmax [2, 9]: 2.7 ± 0.5 h | half-life [2, 9]: 13.2 ± 3.9 h | AUC(0-t) [2, 10]: 127 ± 50 µM·h | Cmax ([2]; male, human, multiple dose phase, Day 1, 1000 mg, oral solution, read-out: Cmax (mM) AVE ± SD): 0.0144 ± 0.0051 mM | Tmax [2, 10]: 2.3 ± 0.5 h | half-life [2, 10]: 11.2 ± 5.1 h | AUCdose-adjusted (in vivo; iv, 2 mg/kg): 6.0 | AUC(0-inf) (in vivo; female, Beagle, iv, 2 mg/kg): 11900 ng·h/mL | CLp (in vivo; female, Beagle, iv, 2 mg/kg): 2.9 mL/min/kg | Cmax (in vivo; female, Beagle, iv, 2 mg/kg): 3200 ng/mL | Tmax (in vivo; female, Beagle, iv, 2 mg/kg): 0.017 h | Vd (in vivo; female, Beagle, iv, 2 mg/kg): 0.4 L/kg | bioavailability (in vivo; female, Beagle, iv, 2 mg/kg): 100% | half-life (in vivo; female, Beagle, iv, 2 mg/kg): 7.7 h | Tmax (in vivo; female, Beagle, po, 5 mg/kg): 1.7 h | IC50 (CYP2C9): ≥ 50 µM | IC50 (CYP2D6): > 50 µM | IC50 (CYP1A2): > 50 µM
